{"source": "patent US20220323614A1", "about": "“KRAS-SPECIFIC CYCLIC PEPTIDES, COMPOSITIONS, AND METHODS OF USING AND MAKING” (Indi Molecular, Inc., priority 2021, published 2022)", "key": {"pERK in AsPC-1 cells": {"test_system": "pERK in AsPC-1 cells", "experiment": "pERK levels in AsPC-1 cells, Western blot normalized to tubulin (pERK_G12D)", "type": "cell-based", "conditions": "FIG. 3, incubated for 12 hours", "procedure": "FIG. 3 is a graph of pERK levels measured in BxPC-3 cells (first eight bars) and AsPC-1 cells (last eight bars) in the presence of different ligands or controls. For each cell type, the graph bars are, from left to right: cell only, DMSO 1.25%, BI-2852, KRpep-2d, NH2-wkyf (SEQ ID NO:46), Ac-wkyf (SEQ ID NO:46), Pal-wkyf (SEQ ID NO:46), Ac-wkyf-Lys(Pal) (SEQ ID NO:46). The levels of pERK are normalized to tubulin. The cells were grown overnight, treated with the ligands, incubated for 12 hours, lysed, gel electrophoresed, and Western blotted. Phosphorylation of ERK is a KRAS-dependent signaling target. […] BI-2852 and Krpep-2d are two positive controls developed by Boehringer Ingelheim and Takeda.\nFIG. 5 is a graph of pERK inhibition in BxPC-3 cells (first eight bars) and AsPC-1 cells (last eight bars) in the presence of the substituted ligands of FIG. 3. For each cell type, the graph bars are, from left to right: DMSO 0.5%, KRpep-2d, Ac-wkyf-Lys(Pal) (SEQ ID NO:46), Ac-w(Dab)yf-Lys(Pal), Ac-wk(4-Br-f)f-Lys(Pal), Ac-wky(4-Br-f)-Lys(Pal), Ac-wky(2-Nal)-Lys(Pal), wkyf (SEQ ID NO:46).\nTables 15A-15E provide a summary of the activity and effects of various of the disclosed wkyf-based cyclic peptides. […] MTT_G12D used AsPc-1 at 5 μM. MTT_WT used BxPC-3 at 5 μM. pERK_G12D used AsPC-1 at 4 μM for 12 hours. pERK_WT used BxPC-3 at 4 μM for 12 hours."}, "[1]": {"test_system": "AsPC-1 (G12D) and BxPC-3 (WT)", "experiment": "spheroid proliferation assay using CellTiter-Glo Assay", "type": "cell-based", "procedure": "FIGS. 2A-2B are graphs of spheroid proliferation assay of AsPC-1 (G12D) and BxPC-3 (WT) using CellTiter-Glo Assay. […] The ligand assayed was Ac-wkyf-Lys(Pal) (SEQ ID NO:46). BxPC-3 and AxPC-1 were cultured as spheroids to compare the cell viability to that observed under adherent conditions. […] These conditions more closely parallel the tumor microenvironment."}, "[2]": {"experiment": "mouse pharmacokinetics of Indi-199 by IV, IP and PO", "type": "in vivo", "conditions": "for half-life: read-out: T½ (converted)", "text": "FIG. 14 is a graph of mouse pharmacokinetics of Indi-199, an example of the disclosed cyclic peptides, by different administration routes (IV, IP, and PO)."}, "[3]": {"experiment": "tolerability of Indi-199 in PBS", "type": "in vivo, mouse", "conditions": "simple formulation (PBS)"}, "[4]": {"test_system": "AsPC1 (G12D mutant) cell line, BxPC3 (wild type), and SW 1990 (G12D mutant)", "conditions": "confocal microscopy, Streptavidin-phycoerythrin (PE) visualization", "procedure": "A biotinylated KRAS(G12D) targeted cyclic peptide and an equivalent agent with membrane targeting capability were tested for membrane association using confocal microscopy. Binding to AsPC1 (G12D mutant) cell line, BxPC3 (wild type), and SW 1990 (G12D mutant) were compared."}, "KRAS (G12D)": {"biological_target": "T1, KRAS (G12D) (Homo sapiens, UniProt P01116, G12D)", "T1 construct": "decreasing or depleting levels of KRAS (G12D) in pancreatic cancer cells; endogenous in cells", "experiment": "Western blot of KRAS (G12D) levels in pancreatic cell lysate", "type": "cell-based", "conditions": "pancreatic cancer cells incubated with the peptide", "text": "The disclosed cyclic peptides can be used, for example, in methods for inhibiting the KRAS (G12D) oncoprotein. Such methods can include treating cancer cells having the KRAS (G12D) mutation. […] In some forms, a cyclic peptide of Formula I can be used to inhibit KRAS (G12D) expressed in any cancer cell. For example, the KRAS (G12D) oncoprotein has been identified in pancreatic, colorectal, lung, biliary tract, and ovarian cancer cells."}, "[5]": {"conditions": "in vivo, mouse, 20 mg/kg IP, 4 mg/mL in PBS"}, "[6]": {"conditions": "in vivo, mouse, 20 mg/kg IV bolus, 4 mg/mL in PBS"}, "[7]": {"conditions": "in vivo, mouse, 50 mg/kg PO, 5 mg/mL in PBS"}}, "note": "Like-named read-outs stand apart in the source and are kept apart here. Where a SMILES comes first, the peptide text is derived from it. Bridges are numbered along the chain shown (N, C = ends). Triazole bridges read from a SMILES are 1,4-linked. Where no end group is shown, it is not given here. [ ]: non-standard residue; d: D form. The star is where a group is joined. Phe(4-guanidino) = N=C(N)Nc1ccc(C[C@H](N)C(=O)O)cc1; dLys(N3) = [N-]=[N+]=NCCCC[C@@H](N)C(=O)O; dPhe(4-Cl) = N[C@H](Cc1ccc(Cl)cc1)C(=O)O; Lys(N3) = [N-]=[N+]=NCCCC[C@H](N)C(=O)O; Morpholinoacetyl = O=C(CN1CCOCC1)*; Palmitoyl = CCCCCCCCCCCCCCCC(=O)*; dPra = C#CC[C@@H](N)C(=O)O; Pra = C#CC[C@H](N)C(=O)O", "data": [{"compound": "CCCCCCCCCCCCCCCC(=O)NCCCC[C@@H](NC(=O)[C@H]1CCCCn2cc(nn2)C[C@@H](NC(C)=O)C(=O)N[C@@H](Cc2c[nH]c3ccccc23)C(=O)N[C@@H](CCCCN)C(=O)N[C@@H](Cc2ccc(O)cc2)C(=O)N[C@@H](Cc2ccccc2)C(=O)N1)C(N)=O", "note": "[Ac-wkyf-Lys(Pal)] (Ac-[dPra]WKYF[dLys(N3)][dK](Palmitoyl)-NH2; triazole 1-6)", "values": [{"measurement": "pERK inhibitory effect", "setting": "pERK in AsPC-1 cells", "value": "most inhibitory effects"}, {"measurement": "selectivity under spheroid culturing", "setting": "[1]; FIG. 2B, spheroid vs adherent culture, AsPC-1 (G12D) vs BxPC-3 (WT)", "value": "selectivity persist under spheroid culturing"}, {"measurement": "reduction of cell viability, spheroid compared to adherent conditions", "setting": "[1]; FIGS. 2A-2B, CellTiter-Glo", "value": "more effective at reducing cell viability"}]}, {"compound": "CCCCCCCCCCCCCCCC(=O)NCCCC[C@H](NC(=O)[C@@H]1CCCCn2cc(nn2)C[C@H](NC(=O)CN2CCOCC2)C(=O)N[C@H](Cc2c[nH]c3ccccc23)C(=O)N[C@H](CCCCN)C(=O)N[C@H](Cc2ccc(O)cc2)C(=O)N[C@H](Cc2ccc(Cl)cc2)C(=O)N1)C(N)=O", "note": "[Indi-199] (Morpholinoacetyl-[Pra][dW][dK][dY][dPhe(4-Cl)][Lys(N3)]K(Palmitoyl)-NH2; triazole 1-6)", "values": [{"measurement": "AUC(0-inf)", "setting": "[2]; [5]", "value": 316, "unit": "µM·h"}, {"measurement": "AUC(0-t)", "setting": "[2]; [5]", "value": 213, "unit": "µM·h"}, {"measurement": "Cmax", "setting": "[2]; [5]", "value": 12, "unit": "µM"}, {"measurement": "Tmax", "setting": "[2]; [5]", "value": 6, "unit": "h"}, {"measurement": "half-life", "setting": "[2]; in vivo, mouse, 20 mg/kg IP, 4 mg/mL in PBS, terminal elimination phase inadequately defined", "value": 13.4, "unit": "h"}, {"measurement": "AUC(0-inf)", "setting": "[2]; [6]", "value": 403, "unit": "µM·h"}, {"measurement": "AUC(0-t)", "setting": "[2]; [6]", "value": 402, "unit": "µM·h"}, {"measurement": "Cmax", "setting": "[2]; [6]", "value": 252, "unit": "µM"}, {"measurement": "Tmax", "setting": "[2]; [6]", "value": 0, "unit": "h"}, {"measurement": "clearance", "setting": "[2]; [6]", "value": 0.587, "unit": "mL/min/kg"}, {"measurement": "half-life", "setting": "[2]; [6]", "value": 2.72, "unit": "h"}, {"measurement": "Vd", "setting": "[2]; in vivo, mouse, 20 mg/kg IV bolus, 4 mg/mL in PBS, read-out: Vdss", "value": 0.0976, "unit": "L/kg"}, {"measurement": "AUC(0-t)", "setting": "[2]; [7]", "value": 0.182, "unit": "µM·h"}, {"measurement": "Cmax", "setting": "[2]; [7]", "value": 0.033, "unit": "µM"}, {"measurement": "Tmax", "setting": "[2]; [7]", "value": 4, "unit": "h"}, {"measurement": "bioavailability", "setting": "[2]; [7]", "value": 0.018, "unit": "%"}, {"measurement": "exposure", "setting": "[2]; iv and ip administration, FIG. 14", "value": "sustained exposure"}, {"measurement": "tolerability", "setting": "[3]", "value": "well tolerated"}]}, {"compound": "Biotin-wky(4-Cl-F)-Lys(Pal)", "values": [{"measurement": "membrane association", "setting": "[4]", "value": "demonstrated membrane association"}]}, {"compound": "QNGnfY (QN[Phe(4-guanidino)]Y; also: cyclic, closure not given here, D-amino acids, places not given here)", "values": [{"measurement": "levels of KRAS (G12D)", "setting": "KRAS (G12D)", "value": "capable of decreasing or depleting levels of KRAS (G12D)"}]}]}
